Laboratory results published in US20150366839A1, “Schisantherin A for the treatment of neurodegenerative diseases” (priority 2014, published 2015).

Tests used:
SH-SY5Y cells = experiment: MTT cytotoxicity of the five lignans; type: cell-based
Description: Human neuroblastoma SH-SY5Y cells were purchased from the American Type Culture Collection (ATCC, Manassas, Va., USA) and cultured in a humidified 5% (v/v) CO2 atmosphere in 37° C. in Dulbecco's Modified Eagle Medium (DMEM) (Life technologies, NY, USA) supplemented with 10% FBS, 1% penicillin (100 U/mL) and streptomycin (100 μg/mL). All experiments were carried out 48 h after the cells were seeded.
Cell viability was determined by 3-(4,5-dimethyl-2-thiazolyl) 2,5-diphenyl-2H-tetrazolium bromide (MTT) assay (Sigma-Aldrich, USA). SH-SY5Y cells were seeded in 96-well plates (1×10^4 cells/well) for 48 h. SH-SY5Y cells were pre-treated with different concentrations of the five lignans (i.e. Schizandrin A, Schizandrin B, SC, Schizandrol A and SchiA) for 12 h and the cell viability was checked by MTT assay. Otherwise, SH-SY5Y cells were pre-treated with different concentrations of the five lignans for 12 h and then exposed to 400 μM 6-OHDA for 4 h. Cells were incubated at 37° C. for 4 h in 0.5 mg/mL MTT solution (prepared in serum free DMEM medium). The medium was then removed, and 100 μL of DMSO was added to each well to dissolve the violet-formazan crystals. The absorbance at 570 nm with 655 nm as a reference wavelength was measured by a multi-label counter (Wallac VICTOR3TMV, Perkin Elmer, Netherlands). Cell viability was expressed as a percentage of the value of the cells without 6-OHDA treatment. The LC50 and EC50 were calculated by GraphPad Prism V5.0 (GraphPad Software, Inc., San Diego, Calif.).
To evaluate the cytotoxicity of five selected lignans of S. chinensis, SH-SY5Y cells were treated with various concentrations of the tested compounds for 12 h and the cell viability was measured using the MTT assay.
To evaluate the cytotoxicity of five selected lignans of S. chinensis, SH-SY5Y cells were treated with various concentrations of the tested compounds for 12 h and the cell viability was measured using the MTT assay. […] To further study the neuroprotective activities of the five lignans in vitro, cells were treated with various concentrations of the tested compounds for 12 h before exposed to MPP^+. […] Values represent mean±S.D. ###P<0.005 versus control group; *p<0.05, **p<0.01 and *** p<0.005 versus MPP group. […] The therapeutic index of SchiA and SC were 14.9 and 8.8, respectively.

caspase-3 = experiment: MPP+-induced caspase-3 activation, Western blot; type: cell-based, Human; conditions: 60 μM 12 h, then 2 mM MPP+ 36 h
Description: After treatment, SH-SY5Y cells were washed three times with PBS and then lysis with RIPA lysis buffer containing 1% PMSF and 1% Protease Inhibitor Cocktail and incubated for 30 min on ice. Cell lysates were centrifuged at 12,500 g for 20 min at 4° C. The supernatant was separated and the amount of protein was determined using the BCA protein assay kit (Thermo Scientific Pierce, USA). Protein samples (30 μg) were separated by SDS-PAGE (10% (w/v)) polyacrylamide gel and then transferred to a polyvinylidene difluoride (PVDF) membrane (Bio-Rad, Hercules, Calif.). Subsequently, the membrane was blocked with 5% (v/v) non-fat milk in PBST (PBS containing 0.1% Tween 20) for 1 h at room temperature. The blots were incubated overnight at 4° C. with primary antibodies. After three washes with PBST, the membranes were incubated with horseradish peroxidase-conjugated secondary antibodies (1:2000) in PBST with 5% non-fat milk for 1 h at room temperature. […] Quantitative assessment of protein bands was done with Gel Doc™ XRS equipped with Quantity One software.
The inventors performed Western blot to measure the expression of active-form of caspase-3 and caspase-7 in SH-SY5Y cells. […] Caspase-3 activity was expressed as units per mg protein. ###p<0.005 versus control group; *p<0.05, **p<0.01 and *** p<0.005 versus MPP+ group.

[1] = test system: intracellular NO in SH-SY5Y cells; experiment: 6-OHDA-induced NO production (DAF-FM diacetate); type: cell-based, Human
Description: Intracellular NO was evaluated by using the fluorescent probe 4-amino-5-methylamino-2′,7′-difluorofluoresecin diacetate (DAF-FM diacetate), which is cell-permeant and diffuses passively across cellular membranes. Once inside the cells, DAF-FM diacetate is deacetylated by intracellular esterases to DAF-FM. DAF-FM is essentially non-fluorescent until DAF-FM reacts with NO. Thus, it can be used to quantify intracellular NO production. The cells were seeded in 96-well, black bottom-clear plates. […] The cells were then washed twice in PBS and the fluorescence was evaluated in a multi-label counter at an excitation wavelength of 495 nm and an emission wavelength of 515 nm. The increase in fluorescence for each treatment was calculated as the relative fluorescence of each treatment compared with the untreated control cells.
Augmented NO production subsequent to iNOS induction appears to play an important role in the initial phase of 6-OHDA-induced neuro-damage models in vitro and in vivo (Singh, Das et al. 2005; Lin, Uang et al. 2007; Shih, Chen et al. 2011). […] Expression of the total iNOS proteins were determined by Western blot analysis. […] Results of FIGS. 4A-C are expressed as a percentage of relative fluorescent intensity (RFI) of the Control group. ###P<0.005 versus control group; *p<0.05, **p<0.01 and *** p<0.005 versus 6-OHDA group.

zebrafish larvae = type: in vivo; conditions: 2.5-10 μM with 250 μM 6-OHDA, 4 days, 10 min session
Description: The wild type zebrafish was used for this study.
Zebrafish behaviour was analyzed using a digital video tracking system (Viewpoint ZebraLab system). The system consists of a digital video camera connected to a computer system running the analysis software ZebraLab Man Rev 3.6B.
Moreover, 6-OHDA treatment also markedly altered the swimming behavior of zebrafish. […] Values in FIG. 9 represent the mean±SEM of 12 fish larvae per group of 3-time independent experiments. ###P<0.005 versus control group; *p<0.05, **p<0.01 and *** p<0.005 versus 6-OHDA group. […] The total swimming distance in 10 min travelled by the zebrafish larvae was decreased after exposure to 6-OHDA.

COc1cc2c(c(OC)c1OC)-c1c(cc3c(c1OC)OCO3)C[C@H](C)[C@](C)(O)[C@H]2OC(=O)c1ccccc1 [SchiA, Schisantherin A]
CC50 (SH-SY5Y cells): 121 µM
MPP+-induced caspase-3 activation (active form) (caspase-3): significant decrease
6-OHDA-induced increase in DAF-FM fluorescence (NO) ([1]; 60 μM 12 h, then 400 μM 6-OHDA 2 h): inhibited such increase in DAF-FM fluorescence
DAF-FM fluorescence intensity, compound alone ([1]; 60 μM, without 6-OHDA): no effect
6-OHDA-induced reduction of total distance of movement (zebrafish larvae): inhibited 6-OHDA-induced reduction of total distance of movement by zebrafish in a dose dependent manner
